Measured values: patent US20170050989A1, “Molecular Imaging Probes” (THE GENERAL HOSPITAL CORPORATION, priority 2013, published 2017)
Entries after “also recorded” stand apart in the source; their conditions may differ.

What was measured:
[1] = molecular target: T1, modified bovine serum albumin (BSA-ALD) (Bos taurus, UniProt P02769); assay: In vitro binding assay: Gd bound to protein after ultrafiltration (ICP); conditions: protein fraction after separation from free solution
T1 construct: A solution of glutaraldehyde (100 μL, 25% wt solution in water) was added to a solution of bovine serum albumin
T1 sequence (P02769 25-607): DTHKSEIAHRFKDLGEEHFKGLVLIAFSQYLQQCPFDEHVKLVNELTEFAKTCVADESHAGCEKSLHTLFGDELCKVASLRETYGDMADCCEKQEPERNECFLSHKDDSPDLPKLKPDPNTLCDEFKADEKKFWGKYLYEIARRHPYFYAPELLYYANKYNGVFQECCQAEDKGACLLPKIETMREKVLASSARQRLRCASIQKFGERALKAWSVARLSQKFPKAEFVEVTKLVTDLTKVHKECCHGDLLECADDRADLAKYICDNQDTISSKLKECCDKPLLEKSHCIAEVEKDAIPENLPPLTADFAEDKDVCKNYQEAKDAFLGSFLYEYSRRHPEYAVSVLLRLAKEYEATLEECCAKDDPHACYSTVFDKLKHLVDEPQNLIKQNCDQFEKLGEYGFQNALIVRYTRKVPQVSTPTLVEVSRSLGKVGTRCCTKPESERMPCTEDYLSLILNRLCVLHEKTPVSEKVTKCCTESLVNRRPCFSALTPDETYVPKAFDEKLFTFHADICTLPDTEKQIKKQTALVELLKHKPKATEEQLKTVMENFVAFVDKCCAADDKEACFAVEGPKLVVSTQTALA

[2] = T1 relaxivity of probe in solution (water) without protein; assay type: physicochemical; conditions: no protein, 310K, pH 7, 0.47 T
Procedure: (§1) Aliquots of BSA-ALD (3 mg, 150 μL) or BSA (3mg, 163 μL) were treated for 24 h at 37° C. with either Compound 1 or Compound 2 at a range of concentrations (0.1-1.0 mM, concentrations equivalent to [Gd]:[aldehyde] ratio of 1:1, 2:1, 3:1, 4:1 and 5:1) with a total volume of 300 μl maintained for all samples. After 24 h longitudinal (T1) relaxation measurements were recorded using a Bruker mq20 Minispec at 0.47 T and 37° C. Longitudinal (T1) relaxation was acquired via an inversion recovery experiment on 10 inversions of duration ranging between 0.05×T1 and 10×T1. Relaxivity (r1) was determined from the slope of a plot of 1/T1 vs [Gd] for 5 concentrations of Gd(III).
Solutions of Compound 1 and Compound 2 (concentration range: 0.1 mM-1.0 mM, in water) were run in parallel without protein as standard controls.

[3] = system: fibrotic liver (CCl4 mice); assay: MR liver imaging in CCl4 mouse model of liver fibrosis (18 weeks); assay type: in vivo; conditions: fibrotic (CCl4-treated) mouse, pre vs 30-minute post administration
Procedure: Liver Fibrosis: Strain A/J male mice (Jackson Laboratories, Bar Harbor, Me.) were administered 0.1 mL of a 40% solution of CCl4 (Sigma, St. Louis, Mo.) in olive oil by oral gavage three times a week for 18 weeks to induce fibrosis. Controls received only pure olive oil. Animals were imaged one week after the last injection to avoid acute effects of CCl4.
Mice were imaged with T1-weighted imaging before and after bolus (tail vein) injection of probe (Compound 1 or Compound 2) using a 4.7T scanner. Image visualization and quantification was performed using the DICOM viewer Osirix. A region of interest (ROI) was placed over the entire liver section while avoiding major blood vessels. Axial slices that cover the entire liver is analyzed (>10 slices/mouse). The signal intensity of the muscle within each slice was also quantified by a separate ROI. To estimate noise, an ROI of the air outside the animal was measured and the standard deviation of this measurement was taken. The same analysis was performed on the pre and 30-min post injection images (3D FLASH sequence).
Contrast to noise ratio (CNR) is calculated using equation (1). SI=signal intensity, SD=standard deviation, and delta CNR is the absolute difference between the pre- and post- images (2).
(§2) CNR=(SIliver−SImuscle)/SDair (1)
Delta CNR={CNRpost−CNRpre} (2)

[4] = molecular target: T2, unmodified bovine serum albumin (BSA) (Bos taurus, UniProt P02769); assay: In vitro binding assay: Gd bound to protein after ultrafiltration (ICP); conditions: protein fraction after separation from free solution
T2 construct: A BSA protein standard without the addition of glutaraldehyde was run in parallel as a control
T2 sequence (P02769 25-607): as above

[5] = molecular target: T2, unmodified bovine serum albumin (BSA); assay: T1 relaxivity/relaxation after incubation with unmodified BSA; assay type: binding
Procedure: (§3) A solution of glutaraldehyde (100 μL, 25% wt solution in water) was added to a solution of bovine serum albumin (100 mg) dissolved in phosphate buffered saline (2 mL, pH 7.4, 0.25 mM) and left to stir at room temperature for 5 min. To this solution was added sodium cyanoborohydride (25 mg) and the solution stirred overnight at 4° C. A BSA protein standard without the addition of glutaraldehyde was run in parallel as a control. Both protein mixtures were purified on PD-10 Sephadex G25 desalting columns (GE Healthcare), eluted with water, to remove excess glutaraldehyde. Protein concentrations were assessed using the ‘BCA Protein Assay Kit’ (Thermo Scientific). […] The aldehyde concentration of each protein was estimated using a standard DNPH literature protocol.
as §1, with “Longitudinal (T1) relaxation was acquired via an inversion recovery experiment on 10 inversions of duration ranging between 0.05×T1 and 10×T1.” left out, “Gd(III). […]” for “Gd(III).”

[6] = system: liver fibrosis (CCl4-treated mice); assay: MR liver imaging in mice after 6 or 12 weeks of CCl4 treatment, or 6 weeks plus recovery; assay type: in vivo; conditions: for ΔCNR (liver:muscle contrast-to-noise ratio): 15-minute post injection; for liver signal enhancement post vs pre injection (in words): 15 min post injection
Procedure: Strain A/J male mice (Jackson Laboratories, Bar Harbor, Me.) were administered 0.1 ml of a 40% solution of CCl4 (Sigma, St. Louis, Mo.) in olive oil by oral gavage, three times a week for either 6 (n=14) or 12 weeks (n=10), to induce fibrosis at different stages. Controls received only pure olive oil (n=12).
Animals were imaged prior to and immediately following injection of the imaging probe. After imaging, the animals were sacrificed and the liver was removed for histopathological analyses.
Animals were anesthetized with isoflurane (1-2%) and placed in a specially designed cradle with body temperature maintained at 37° C. The tail vein was cannulated for intravenous (iv) delivery of the contrast agent while the animal was positioned in the scanner. Imaging was performed at 4.7T using a small bore animal scanner (Bruker Biospec) with a custom-built volume coil. The mouse was imaged prior to and following a bolus iv injection of Compound 1 (100 μmol/kg). The image sequence was a three dimensional fast low angle shot (3D FLASH) acquisition with repetition time (TR=15.3 ms), echo time (TE=1.54 ms), flip angle=15°, field of view 48×24×24 mm and matrix size 192×96×96 for a resolution of 250 μm isotropic and […] used 4 averages.
Image analysis was performed using the Osirix software. A region of interest (ROI) was manually traced encompassing the liver parenchyma while avoiding major blood vessels. A second ROI was placed on the dorsal muscle visible in the same image slice to quantify the signal intensity in the muscle for comparison. Seven ROIs were placed in the field of view without any tissue (air) to measure the noise in the image. More than 20 axial slices per mouse across the entire liver was analyzed in this fashion. The same analysis was performed on the pre-injection and 15-minute post injection images.
To quantify signal enhancement in the liver, contrast to noise ratio (CNR) was calculated using equation 1 below. SI=signal intensity, SD=standard deviation. An average of all image slices was calculated for the pre-injection images (CNRpre) and for the post-injection images (CNRpos). The liver enhancement for each mouse was expressed as ΔCNR, the difference between the pre-injection CNR and post-injection CNR (equation 2).
as §2
Differences among groups were tested with repeated measures ANOVA, followed by Student-Newman-Keuls post hoc test with P<0.05 considered as significant.
Strain A/J male mice (Jackson Laboratories, Bar Harbor, Me.) were administered 0.1 ml of a 40% solution of CCl4 (Sigma, St. Louis, Mo.) in olive oil by oral gavage, three times a week for 6 weeks and then allowed to recover for an additional 6 weeks (n=7). Animals were imaged prior to and immediately following injection of the imaging probe using the same protocol as in the previous example.
We compared Compound 2 to Compound 1 in terms of their ability to image fibrosis. Compound 2 has a very similar structure to Compound 1 but the hydrazide functional group has been dimethylated. The resulting dimethylhydrazide in Compound 2 is incapable of undergoing irreversible reaction with aldehyde moieties. Using the same animal model and imaging paradigm as described in the previous Example, mice that had been treated with CCl4 for 12 weeks or mice that received vehicle for 12 weeks were imaged.

[7] = molecular target: T1, modified bovine serum albumin (BSA-ALD); assay: T1 relaxivity/relaxation after incubation with aldehyde-modified BSA; assay type: binding
Procedure: as §3
as §1, with “Longitudinal (T1) relaxation was acquired via an inversion recovery experiment on 10 inversions of duration ranging between 0.05×T1 and 10×T1.” left out, “Gd(III). […]” for “Gd(III).”

Gd bound to protein [1]: No statistically significant amount | T1 relaxivity, standard solution measurement [2]: 4.09 mM⁻¹ s⁻¹ | Gd bound to protein [4]: No statistically significant amount | change in T1 relaxation time compared to standards ([5]; fractions after separation, BSA (FIG. 5A)): did not differ significantly | T1 relaxivity with BSA ([5]; incubated 24 h at 37° C. with BSA, 310K, pH 7, 0.47 T): 4.20 mM⁻¹ s⁻¹ | T1 relaxivity with BSA-ALD ([7]; incubated 24 h at 37° C. with BSA-ALD, 310K, pH 7, 0.47 T): 4.22 mM⁻¹ s⁻¹ | change in T1 relaxation time of protein fraction compared to solution controls ([7]; protein fraction after separation, BSA-ALD (FIG. 5A)): did not differ significantly
SMILES: CN(C)NC(=O)CC[C@H](C(=O)O)N1CCN(CC(=O)[O-])CCN(CC(=O)[O-])CCN(CC(=O)[O-])CC1.[Gd+3] [Compound 2, (R)-2,2′,2″-(10-(1-carboxy-4-(2,2-dimethylhydrazinyl)-4-oxobutyl)-1,4,7,10-tetraazacyclododecane-1,4,7-triyl)triacetic acid Gadolinium complex]
MR signal enhancement of liver [3]: very little enhancement; also recorded: little MR signal enhancement | increase in ΔCNR, 12-week CCl4-treated vs vehicle ([6]; 12-week CCl4-treated animals vs vehicle): no difference | ΔCNR (liver:muscle contrast-to-noise ratio) ([6]; 12-week CCl4-treated mice): 0.5±0.5 | liver signal enhancement post vs pre injection (in words) ([6]; 12-week CCl4-treated mice): slight enhancement | ΔCNR (liver:muscle contrast-to-noise ratio) ([6]; vehicle (olive oil) treated control mice, probe injected iv): 0.6±0.9 | liver signal enhancement post vs pre injection (in words) ([6]; vehicle treated mice): slight enhancement
